Reference: US20260133203A1, “DETECTION OF FUMARATE-DERIVED MODIFICATION IN A TEST SAMPLE” (UNIVERSITY OF SOUTH CAROLINA, priority 2017, published 2026)
Where a name gives a salt, the structure may show the parent alone.

What was measured:
heme oxygenase 1 (HO-1) = assay: Western blot of HO-1 expression after DMF treatment; format: cell-based
Procedure: N1E-115 cells (subclone N1E-115-1 neuroblastoma cells) were obtained from Sigma (08062511, St. Louis, MO). The cells were grown and expanded in non-differentiation medium (NDM): 90% DMEM (Gibco™, Grand Island, NY) with 25 mM glucose, no pyruvate, 25 mM HEPES, 4 mM glutamine and 10% fetal bovine serum (FBS, Atlanta Biologicals, Atlanta, GA). At 80% confluence, the cells were differentiated into neurons in the presence of 2% FBS and 1.25% dimethyl sulfoxide in DMEM for 5 days. In addition to the assessment of the neuronal phenotype by light microscopy, the detection of synaptophysin protein levels was used to confirm successful differentiation. During the final 6 or 24 hours of differentiation, the cells were treated with 10-100 µM DMF and harvested as described above for primary neurons, with the addition of phosphatase inhibitors to the DPBS washes and the RIPA buffer used for scraping to prevent dephosphorylation of CRMP-2. […] To ensure that the succinated proteins detected were solely of neuronal origin, N1E-115 neuroblastoma cells were differentiated to a neuronal phenotype (confirmed by increased synaptophysin content) and treated with DMF for 24 hours. […]

primary rat neurons = assay: LC-MS/MS identification of succinated proteins in primary rat neurons; format: cell-based; details: DMF-treated primary rat neurons, modified by DMF or MMF
Procedure: Primary neurons from newborn rat brain cortices were isolated and cultured using an adaptation of methods described previously. Briefly, postnatal day 1 rats were sacrificed by decapitation, the brains were aseptically dissected, and cortices were separated from the rest of the brain in ice-cold Hibernate®-A medium (Life Technologies) containing 2% (v/v) B-27 supplement (Life Technologies) and 0.5 mM glutamine (InvitrogenTM). The tissue was minced in fragments of about 1 mm3 with a scalpel and subjected to digestion with 2 mg/ml papain (Worthington) in the supplemented Hibernate®-A medium for 20 minutes at 30° C. in a shaker incubator set at 100 rpm. […] After a centrifugation at 500 g for 5 min at room temperature, cells were resuspended in NeurobasalTM-A medium containing 0.5 mM glutamine, 2% B-27 supplement, and 5 ng/ml bFGF (InvitrogenTM); counted and plated on 24-well plates pretreated with 0.01% poly-L-lysine (Sigma-AldrichTM) at a density of 200,000 cells/well. […] The protein content in the different samples was determined by the Lowry assay. […] After gel extraction, the peptides were re-suspended in 1% acetic acid and analyzed on a DionexTM […] system (Thermo ScientificTM, Rockford, IL) coupled to an Orbitrap Velos ProTM mass spectrometer (Thermo ScientificTM, Rockford, IL). […]

Question: Which results are given for COC(=O)/C=C/C(=O)OC [DMF, dimethyl fumarate]?
Answer: HO-1 expression (heme oxygenase 1 (HO-1)): significantly induced HO-1 expression; number of succinated proteins confirmed (primary rat neurons): 4
